Data: the NIST ThermoML archive (doi:10.1021/acs.jced.6b00178)

Columns and labels:
[1] = xn = mol fraction of the nth substance listed; details: 100 kPa, Liquid, x2 = 0; for viscosity: Concentric cylinders viscometry; for mass density: Vibrating tube method

CCCCn1cc[n+](C)c1.N#CN=C=[N-] [1-butyl-3-methylimidazolium dicyanamide]
100 kPa, Liquid
Details | mass density, Vibrating tube method [kg/m3] | viscosity, Concentric cylinders viscometry [mPa·s]
283.15 K | 1070 | 58.35
288.15 K | 1066.7 | 45.91
293.15 K | 1063.4 | 36.83
298.15 K | 1060.2 | 30.08
303.15 K | 1057 | 24.94
308.15 K | 1053.8 | 20.98
313.15 K | 1050.6 | 17.86
318.15 K | 1047.5 | 15.38
323.15 K | 1044.4 | 13.38
328.15 K | 1041.3 | 11.74
333.15 K | 1038.2 | 10.38
338.15 K | 1035.2 | 9.251
343.15 K | 1032.1 | 8.298
348.15 K | 1029.1 | 7.488
353.15 K | 1026.1 | 6.794
358.15 K | 1023.2 | 6.196
363.15 K | 1020.3 | 5.677

CCCCn1cc[n+](C)c1.F[P-](F)(F)(F)(F)F [1-butyl-3-methylimidazolium hexafluorophosphate]
100 kPa
Details | mass density [kg/m3] | viscosity [mPa·s]
283.15 K, Metastable liquid, Concentric cylinders viscometry | – | 794.33
283.15 K, Metastable liquid, Vibrating tube method | 1379.9 | –
288.15 K, Concentric cylinders viscometry, Liquid | – | 557.27
288.15 K, Vibrating tube method, Liquid | 1376.5 | –
293.15 K, Concentric cylinders viscometry, Liquid | – | 393.86
293.15 K, Vibrating tube method, Liquid | 1372 | –
298.15 K, Concentric cylinders viscometry, Liquid | – | 285.02
298.15 K, Vibrating tube method, Liquid | 1367.6 | –
303.15 K, Concentric cylinders viscometry, Liquid | – | 210.93
303.15 K, Vibrating tube method, Liquid | 1363.4 | –
308.15 K, Concentric cylinders viscometry, Liquid | – | 159.46
308.15 K, Vibrating tube method, Liquid | 1359.2 | –
313.15 K, Concentric cylinders viscometry, Liquid | – | 122.78
313.15 K, Vibrating tube method, Liquid | 1355.1 | –
318.15 K, Concentric cylinders viscometry, Liquid | – | 96.28
318.15 K, Vibrating tube method, Liquid | 1351 | –
323.15 K, Concentric cylinders viscometry, Liquid | – | 76.72
323.15 K, Vibrating tube method, Liquid | 1347 | –
328.15 K, Concentric cylinders viscometry, Liquid | – | 62.04
328.15 K, Vibrating tube method, Liquid | 1342.9 | –
333.15 K, Concentric cylinders viscometry, Liquid | – | 50.85
333.15 K, Vibrating tube method, Liquid | 1338.9 | –
338.15 K, Concentric cylinders viscometry, Liquid | – | 42.2
338.15 K, Vibrating tube method, Liquid | 1334.9 | –
343.15 K, Concentric cylinders viscometry, Liquid | – | 35.43
343.15 K, Vibrating tube method, Liquid | 1330.9 | –
348.15 K, Concentric cylinders viscometry, Liquid | – | 30.04
348.15 K, Vibrating tube method, Liquid | 1326.9 | –
353.15 K, Concentric cylinders viscometry, Liquid | – | 25.72
353.15 K, Vibrating tube method, Liquid | 1323 | –
358.15 K, Concentric cylinders viscometry, Liquid | – | 22.22
358.15 K, Vibrating tube method, Liquid | 1319 | –
363.15 K, Concentric cylinders viscometry, Liquid | – | 19.36
363.15 K, Vibrating tube method, Liquid | 1315.2 | –

CCCCn1cc[n+](C)c1.F[B-](F)(F)F [1-butyl-3-methylimidazolium tetrafluoroborate]
100 kPa, Liquid
Details | mass density, Vibrating tube method [kg/m3] | viscosity, Concentric cylinders viscometry [mPa·s]
283.15 K | 1212.5 | 264.99
288.15 K | 1208.8 | 192.43
293.15 K | 1205.2 | 143.08
298.15 K | 1201.6 | 108.74
303.15 K | 1198 | 84.28
308.15 K | 1194.5 | 66.52
313.15 K | 1190.9 | 53.37
318.15 K | 1187.4 | 43.47
323.15 K | 1184 | 35.89
328.15 K | 1180.5 | 30.01
333.15 K | 1177 | 25.38
338.15 K | 1173.6 | 21.68
343.15 K | 1170.2 | 18.7
348.15 K | 1166.8 | 16.26
353.15 K | 1163.4 | 14.26
358.15 K | 1160.1 | 12.59
363.15 K | 1156.8 | 11.2

CCCCn1cc[n+](C)c1.F[B-](F)(F)F [1-butyl-3-methylimidazolium tetrafluoroborate] + CCCC[n+]1ccn(C)c1.O=S(=O)([N-]S(=O)(=O)C(F)(F)F)C(F)(F)F
[1]
Details | mass density [kg/m3] | viscosity [mPa·s]
283.15 K | 1212.5 | 264.99
288.15 K | 1208.8 | 192.43
293.15 K | 1205.2 | 143.08
298.15 K | 1201.6 | 108.74
303.15 K | 1198 | 84.28
308.15 K | 1194.5 | 66.52
313.15 K | 1190.9 | 53.37
318.15 K | 1187.4 | 43.47
323.15 K | 1184 | 35.89
328.15 K | 1180.5 | 30.01
333.15 K | 1177 | 25.38
338.15 K | 1173.6 | 21.68
343.15 K | 1170.2 | 18.7
348.15 K | 1166.8 | 16.26
353.15 K | 1163.4 | 14.26
358.15 K | 1160.1 | 12.59
363.15 K | 1156.8 | 11.2

CCCCn1cc[n+](C)c1.N#C[S-] [1-butyl-3-methylimidazolium thiocyanate]
100 kPa, Liquid
Details | mass density, Vibrating tube method [kg/m3] | viscosity, Concentric cylinders viscometry [mPa·s]
283.15 K | 1079.2 | 139.54
288.15 K | 1076.2 | 104.51
293.15 K | 1073.2 | 82.91
298.15 K | 1070.2 | 62.63
303.15 K | 1067.2 | 49.94
308.15 K | 1064.2 | 40.48
313.15 K | 1061.3 | 34.08
318.15 K | 1058.4 | 27.8
323.15 K | 1055.5 | 23.49
328.15 K | 1052.6 | 20.06
333.15 K | 1049.8 | 17.58
338.15 K | 1047 | 15.08
343.15 K | 1044.1 | 13.24
348.15 K | 1041.4 | 11.71
353.15 K | 1038.6 | 10.67
358.15 K | 1035.8 | 9.355
363.15 K | 1033.1 | 8.436

CCCCn1cc[n+](C)c1.O=S(=O)([O-])C(F)(F)F [1-butyl-3-methylimidazolium trifluoromethanesulfonate]
100 kPa
Details | mass density [kg/m3] | viscosity [mPa·s]
283.15 K, Metastable liquid, Concentric cylinders viscometry | – | 225.61
283.15 K, Metastable liquid, Vibrating tube method | 1308.4 | –
288.15 K, Metastable liquid, Concentric cylinders viscometry | – | 168.05
288.15 K, Metastable liquid, Vibrating tube method | 1304.3 | –
293.15 K, Concentric cylinders viscometry, Liquid | – | 128.51
293.15 K, Vibrating tube method, Liquid | 1300.3 | –
298.15 K, Concentric cylinders viscometry, Liquid | – | 99.14
298.15 K, Vibrating tube method, Liquid | 1296.3 | –
303.15 K, Concentric cylinders viscometry, Liquid | – | 78.26
303.15 K, Vibrating tube method, Liquid | 1292.3 | –
308.15 K, Concentric cylinders viscometry, Liquid | – | 62.76
308.15 K, Vibrating tube method, Liquid | 1288.4 | –
313.15 K, Concentric cylinders viscometry, Liquid | – | 51.33
313.15 K, Vibrating tube method, Liquid | 1284.5 | –
318.15 K, Concentric cylinders viscometry, Liquid | – | 42.1
318.15 K, Vibrating tube method, Liquid | 1280.6 | –
323.15 K, Concentric cylinders viscometry, Liquid | – | 35.13
323.15 K, Vibrating tube method, Liquid | 1276.7 | –
328.15 K, Concentric cylinders viscometry, Liquid | – | 29.63
328.15 K, Vibrating tube method, Liquid | 1272.8 | –
333.15 K, Concentric cylinders viscometry, Liquid | – | 25.5
333.15 K, Vibrating tube method, Liquid | 1268.9 | –
338.15 K, Concentric cylinders viscometry, Liquid | – | 21.72
338.15 K, Vibrating tube method, Liquid | 1265.1 | –
343.15 K, Concentric cylinders viscometry, Liquid | – | 18.84
343.15 K, Vibrating tube method, Liquid | 1261.3 | –
348.15 K, Concentric cylinders viscometry, Liquid | – | 16.47
348.15 K, Vibrating tube method, Liquid | 1257.5 | –
353.15 K, Concentric cylinders viscometry, Liquid | – | 14.83
353.15 K, Vibrating tube method, Liquid | 1253.7 | –
358.15 K, Concentric cylinders viscometry, Liquid | – | 12.86
358.15 K, Vibrating tube method, Liquid | 1249.9 | –
363.15 K, Concentric cylinders viscometry, Liquid | – | 11.48
363.15 K, Vibrating tube method, Liquid | 1246.2 | –
